According to patent US6348445B1, “Biologically active peptides with reduced toxicity in animals and a method for preparing same” (priority 1992, dated 2002):
Where a SMILES comes first, the peptide text is derived from it. [ ]: non-standard residue; d: D form. The star is where a group is joined. Ibuprofenoyl = CC(C)Cc1ccc(C(C)C(=O)*)cc1; Myristoyl = CCCCCCCCCCCCCC(=O)*; Octanoyl = CCCCCCCC(=O)*; Orn = NCCC[C@H](N)C(=O)O; Hexanoyl = CCCCCC(=O)*

Columns and labels:
Type in all cases: cell-based
[1] = test system: P. aeruginosa strain ATCC 27853; conditions: ATCC 27853
From the text: (§1) Table I, which follows, indicates the Minimal Inhibitory Concentration (MIC) in […] of various peptides against S.aureus strain ATCC 25923(S), P. aeruginosa strain ATCC 27853(P), E. coli ATCC strain 25922(E), and C. 4albicans (CA). […] The peptides are unsubstituted at the N-terminal; substituted with an acetyl group at the N-terminal, as indicated by Ac-; substituted with an octanoyl group at the N-terminal, as indicated by Oct-; substituted with spinogosine, as indicated by Sph-; substituted with a succinyl group, as indicated by Suc-; substituted with a hexanoyl group, as indicated by Hex-; substituted with a heptanoyl group, as indicated by Hep-; substituted with a valeryl group, as indicated by Val-; substituted with a myristryl group, as indicated by Myr-; or substituted with an ibuprofyl group, as indicated by Ibu-;
(§2) The procedure for the anti-bacterial assay is based upon the guidelines of the National Committee for Clinical Laboratory Standards, Document M7-T2, Volume 8, No. 8, 1988, which document is entirely incorporated herein by reference.
(§3) Stock solutions of peptides, with and without the appropriate substitutions, were prepared at a concentration of 512 μg/ml in sterile deionized distilled water and stored at −70° C.
(§4) The stock peptide solution was diluted in serial dilutions (1:2) down the wells of a microtiter plate so that the final concentrations of peptides in the wells were 0.25, 0.50, 1, 2, 4, 8, 16, 32, 64, 128 and 256 μg/ml. 1-5×10^5 CFUs/ml of either S. aureus ATCC 25923, E. coli ATCC 25922, P. aeruginosa ATCC 27853, or C. albicans, were added to the wells in full strength Mueller Hinton broth (BBL 11443) from a mid-log culture. The inoculum was standardized spectrophotometrically at 600 nm and was verified by colony counts. The plates were incubated for 16-20 hours at 37° C., and the minimal inhibitory concentration (MIC) for each peptide was determined. Minimal inhibitory concentration is defined as the lowest concentration of peptide which produces a clear well in the microtiter plate. The minimal inhibitory concentration of each of the peptides with and/or without the appropriate substitutions is given in Table I below.
(§5) The in vitro anti-microbial activities of the methane sulfonate derivatives were determined according to the methods described in Examples 1 and 2. The activities against ATCC strains of S. aureus, E. coli, P. aeruginosa, and C. albicans, and the hemolysis of red blood cells were compared to the parent compound (Table IV). The activities for Compound 843 (Oct-SEQ ID NO:143) methane sulfonate against clinical strains of P. aeruginosa isolated from cystic fibrosis patients were compared to the parent compound (Table V). The activity for Compound 469 (Oct-SEQ ID NO:27) methane sulfonate against P. gingivalis was compared to the parent compound (Table VI).

C. albicans = test system: C. albicans
From the text: as §1, §2, §3, §4

[2] = test system: E. coli ATCC strain 25922; assay: Minimal Inhibitory Concentration, microtiter broth dilution; conditions: ATCC strain 25922
From the text: as §1, §2, §3, §4, §5

| Structure (SMILES) | Minimal Inhibitory Concentration P [1] [µg/mL] | Minimal Inhibitory Concentration CA (C. albicans) [µg/mL] | Minimal Inhibitory Concentration E [2] [µg/mL] |
| --- | --- | --- | --- |
| CCCCCCCC(=O)N[C@@H](CC(C)C)C(=O)N[C@@H](CCCN)C(=O)N[C@@H](CCCN)C(=O)N[C@@H](CC(C)C)C(=O)N[C@@H](CC(C)C)C(=O)N[C@@H](CCCN)C(=O)N[C@@H](CCCN)C(=O)N[C@@H](CC(C)C)C(=O)N[C@@H](CCCN)C(=O)N[C@@H](CCCN)C(=O)N[C@@H](CC(C)C)C(N)=O [Oct-(SEQ ID NO: 142)-NH2] (Octanoyl-L[Orn][Orn]LL[Orn][Orn]L[Orn][Orn]L-NH2) | 2 | 32 | 8 |
| CCCCCCCC(=O)N[C@@H](CCCCN)C(=O)N[C@@H](CC(C)C)C(=O)N[C@@H](CCCCN)C(=O)N[C@@H](CCCCN)C(=O)N[C@@H](CCCCN)C(=O)N[C@@H](Cc1ccccc1)C(=O)N[C@@H](CC(C)C)C(=O)N[C@@H](CCCCN)C(=O)N[C@@H](CCCCN)C(=O)N[C@@H](CC(C)C)C(N)=O [Oct-(SEQ ID NO: 129)-NH2] (Octanoyl-KLKKKFLKKL-NH2) | 16 | 128 | 32 |
| CCCCCCCC(=O)N[C@@H](CC(C)C)C(=O)N[C@@H](CC(C)C)C(=O)N[C@@H](CCCCN)C(=O)N[C@@H](CCCCN)C(=O)N[C@@H](CC(C)C)C(=O)N[C@@H](CCCCN)C(=O)N[C@@H](CCCCN)C(=O)N[C@@H](CC(C)C)C(N)=O [Oct-(SEQ ID NO: 107)-NH2] (Octanoyl-LLKKLKKL-NH2) | 256 | 128 | >256 |
| CCCCCCCC(=O)N[C@@H](CCCCN)C(=O)N[C@@H](Cc1ccccc1)C(=O)N[C@@H](C)C(=O)N[C@@H](CCCCN)C(=O)N[C@@H](CCCCN)C(=O)N[C@@H](Cc1ccccc1)C(=O)N[C@@H](C)C(=O)N[C@@H](CCCCN)C(=O)N[C@@H](Cc1ccccc1)C(=O)N[C@@H](C)C(=O)N[C@@H](CCCCN)C(=O)N[C@@H](CCCCN)C(=O)N[C@@H](Cc1ccccc1)C(=O)N[C@@H](C)C(N)=O [Oct-(SEQ ID NO: 125)-NH2] (Octanoyl-KFAKKFAKFAKKFA-NH2) | 8 | 64 | 16 |
| CCCCCCCC(=O)N[C@@H](CC(C)C)C(=O)N[C@@H](CCCCN)C(=O)N[C@@H](CCCCN)C(=O)N[C@@H](CC(C)C)C(=O)N[C@@H](CC(C)C)C(=O)N[C@@H](CCCCN)C(=O)N[C@@H](CCC(=O)O)C(=O)N[C@@H](CC(C)C)C(=O)N[C@@H](CCCCN)C(=O)N[C@@H](CCCCN)C(=O)N[C@@H](CC(C)C)C(N)=O [Oct-(SEQ ID NO: 131)-NH2] (Octanoyl-LKKLLKELKKL-NH2) | 8 | 64 | 4 |
| CCCCCCCC(=O)N[C@@H](CC(C)C)C(=O)N[C@@H](CCCCN)C(=O)N[C@@H](CCCCN)C(=O)N[C@@H](CC(C)C)C(=O)N[C@@H](CC(C)C)C(=O)N[C@@H](CCCCN)C(=O)N[C@@H](CC(C)C)C(=O)N[C@@H](CC(C)C)C(=O)N[C@@H](CCCCN)C(N)=O [Oct-(SEQ ID NO: 138)-NH2] (Octanoyl-LKKLLKLLK-NH2) | 8 | 64 | 8 |
| CCCCCCCC(=O)N[C@@H](CCCCN)C(=O)N[C@H](C(=O)N[C@@H](C)C(=O)N[C@@H](CCCCN)C(=O)N[C@@H](CCCCN)C(=O)N[C@H](C(=O)N[C@@H](C)C(N)=O)[C@@H](C)CC)[C@@H](C)CC [Oct-(SEQ ID NO: 119)-NH2] (Octanoyl-KIAKKIA-NH2) | >256 | >256 | >256 |
| CC[C@H](C)[C@H](NC(=O)[C@H](CCCCN)NC(=O)CNC(=O)[C@H](C)NC(=O)[C@@H](NC(=O)[C@H](CCCCN)NC(=O)[C@H](C)NC(=O)[C@@H](NC(=O)[C@H](CCCCN)NC(=O)CNC(=O)[C@H](C)NC(=O)[C@@H](NC(=O)[C@H](CCCCN)NC(=O)[C@H](C)NC(=O)[C@@H](NC(=O)[C@H](CCCCN)NC(=O)CNC(=O)[C@H](C)NC(=O)[C@@H](NC(=O)[C@H](CCCCN)NC(=O)C(C)c1ccc(CC(C)C)cc1)[C@@H](C)CC)[C@@H](C)CC)[C@@H](C)CC)[C@@H](C)CC)[C@@H](C)CC)C(=O)N[C@@H](C)C(N)=O (stereo partly drawn) [Ibu-(SEQ ID NO: 27)-NH2] (Ibuprofenoyl-KIAGKIAKIAGKIAKIAGKIA-NH2) | 4 | 128 | 8 |
| CCCCCCCC(=O)N[C@@H](CCCCN)C(=O)N[C@@H](CC(C)C)C(=O)N[C@@H](CC(C)C)C(=O)N[C@@H](CCCCN)C(=O)N[C@@H](CCCCN)C(=O)N[C@@H](CC(C)C)C(=O)N[C@@H](CCCCN)C(=O)N[C@@H](CCCCN)C(=O)N[C@@H](CC(C)C)C(N)=O [Oct-(SEQ ID NO: 108)-NH2] (Octanoyl-KLLKKLKKL-NH2) | 4 | 64 | 64 |
| CCCCCCCC(=O)N[C@@H](CCCNC(=N)N)C(=O)N[C@@H](Cc1ccccc1)C(=O)N[C@@H](C)C(=O)N[C@@H](CCCNC(=N)N)C(=O)N[C@@H](CCCNC(=N)N)C(=O)N[C@@H](Cc1ccccc1)C(=O)N[C@@H](C)C(N)=O [Oct-(SEQ ID NO: 120)-NH2] (Octanoyl-RFARRFA-NH2) | 128 | 64 | 256 |
| CCCCCCCCCCCCCC(=O)N[C@@H](CC(C)C)C(=O)N[C@@H](CCCCN)C(=O)N[C@@H](CCCCN)C(=O)N[C@@H](CC(C)C)C(=O)N[C@@H](CC(C)C)C(=O)N[C@@H](CCCCN)C(=O)N[C@@H](CCC(=O)O)C(=O)N[C@@H](CC(C)C)C(=O)N[C@@H](CC(C)C)C(=O)N[C@@H](CCCCN)C(=O)N[C@@H](CC(C)C)C(N)=O [Myr-(SEQ ID NO: 151)-NH2] (Myristoyl-LKKLLKELLKL-NH2) | 128 | >256 | 64 |
| CCCCCCCC(=O)N[C@@H](CCCCN)C(=O)N[C@@H](CCCCN)C(=O)N[C@@H](CC(C)C)C(=O)N[C@@H](CC(C)C)C(=O)N[C@@H](CCCCN)C(=O)N[C@@H](CCCCN)C(=O)N[C@@H](CC(C)C)C(=O)N[C@@H](CCCCN)C(=O)N[C@@H](CCCCN)C(=O)N[C@@H](CC(C)C)C(=O)N[C@@H](CC(C)C)C(=O)N[C@@H](CCCCN)C(=O)N[C@@H](CCCCN)C(=O)N[C@@H](CC(C)C)C(N)=O [Oct-(SEQ ID NO: 139)-NH2] (Octanoyl-KKLLKKLKKLLKKL-NH2) | 32 | 128 | 16 |
| CCCCCC(=O)N[C@H](C(=O)N[C@@H](C)C(=O)NCC(=O)N[C@@H](C)C(=O)N[C@H](C(=O)N[C@@H](C)C(=O)N[C@@H](CCCCN)C(=O)N[C@H](C(=O)N[C@@H](C)C(=O)NCC(=O)N[C@@H](CCCCN)C(=O)N[C@H](C(=O)N[C@@H](C)C(=O)N[C@@H](CCCCN)C(=O)N[C@H](C(=O)N[C@@H](C)C(=O)NCC(=O)N[C@@H](C)C(=O)N[C@H](C(=O)N[C@@H](C)C(N)=O)[C@@H](C)CC)[C@@H](C)CC)[C@@H](C)CC)[C@@H](C)CC)[C@@H](C)CC)[C@@H](C)CC [Hex-(SEQ ID NO: 150)-NH2] (Hexanoyl-IAGAIAKIAGKIAKIAGAIA-NH2) | 128 | 128 | 32 |
